Marks after values point to notes of the source that are not given here.
Legend:
[1] = parallel artificial membrane permeability assay for the BBB (PAMPA-BBB); format: in vitro ADME; details: metabolites in the five PLE extracts, 4 h at 37 °C, pH 7.4; result in words
Description: The parallel artificial membrane permeability assay for the BBB assay was carried out as previously described with some modifications. Briefly, 20 mg/mL thinned peach extracts in 50% ethanol (v/v) was diluted to 5 mg/mL with potassium phosphate buffer (10 mmol/L, pH 7.4). Then, 350 μL of 5 mg/mL extracts and 350 μL of buffer were added to each well of the donor plate and the acceptor plate, respectively. The filter membrane of the donor plate was coated with 5 µL of BBB solution. Afterwards, the whole plate was incubated in the dark for 4 h at 37 °C. After incubation, 300 µL of sample from each well in the donor and acceptor plates was taken out, collected and dried. The dried acceptor and donor samples were redissolved in 50 µL of ethanol and analyzed via HPLC-Q-TOF-MS/MS as described below. The permeability across the artificial BBB of each compound was calculated in terms of cm/s, as in [16].

[2] = RNS scavenging capacity, nitric oxide (NO) radical scavenging assay; details: at the maximum concentration tested, 0.8 mg/mL; PLE extracts under optimized conditions and ascorbic acid
Description: The RNS scavenging capacity was estimated by referring to the nitric oxide (NO) radical scavenging assay described by Ho et al. (2010), with some modifications. In brief, 100 μL of the thinned peach extracts in 25% ethanol (v/v) was mixed with 50 μL of 5 mM sodium nitroprusside dehydrate in buffer (30 mmol/L phosphate buffer at pH 7.5) using a transparent 96-well plate. The mixtures were placed under white light at room temperature for 60 min. Afterwards, 100 μL of Griess reagent (500 mg sulphanilamide, 50 mg naphthylethylene diamine dihydrochloride and 1.25 mL of phosphoric acid in 48.5 mL of H2O) was added to each well. The mixtures were allowed to stand for 5 min and the absorbance was read at 546 nm. Ascorbic acid was used as the reference standard and the NO scavenging capacity was calculated as described by Sánchez-Martínez et al. (2021).

[3] = ROS scavenging capacity, oxygen radical absorbance capacity (ORAC) assay; details: PLE extracts under optimized conditions (50% ethanol, 180 °C) and reference standard
Description: The ROS scavenging capacity was measured using the oxygen radical absorbance capacity (ORAC) assay described by Ou et al. (2001). Briefly, the reaction mixture contained 100 μL of samples at different concentrations in 10% ethanol (v/v), 100 μL of 590 mmol/L AAPH in 30 mmol/L phosphate buffer (pH 7.5), 100 μL of phosphate buffer and 25 μL of 10 μmol/L fluorescein in buffer. The absorbance was read at the 485 nm excitation spectrum and 528 nm emission spectrum, and recorded at 5 min intervals for 60 min at 37 °C. Ascorbic acid was used as the reference standard and 10% ethanol (v/v) was used as the control. The ROS scavenging capacity was calculated as described by Sánchez-Martínez et al. (2021).

With `CC(=O)c1ccc(O)c(O)c1` [3,4-dihydroxyacetophenone, 3,4-Dihydroxyacetophenone] the “ability to cross the artificial BBB” value [1] was “could cross the BBB”.
In the case of `Cc1cc(=O)oc2c(O)c(O)ccc12` [4-methyldaphnetin, 4-Methyldaphnetin], the “ability to cross the artificial BBB” value [1] is reported as “could cross the BBB”.
For `CCCCCCCC(O)/C=C\C(O)CCC(O)CCCC(=O)O` (stereo not shown) [(9Z)-5,8,11-Trihydroxyoctadec-9-enoic acid], the “ability to cross the artificial BBB” value [1] was “could cross the BBB”.
In the case of `O=C1O[C@H]([C@@H](O)CO)C(O)=C1O` [Ascorbic acid], the “RNS, percentage of inhibition of nitrogen species with respect to the control” value [2] is reported as 83.8 ± 4 ^a % and the “ROS (IC50)” value [3] is reported as 3.3 ± 0.6 ^e µg/mL.
For `COc1ccc(/C=C/C(=O)O)cc1O` [isoferulic acid, Isoferulic acid], the “ability to cross the artificial BBB” value [1] was “could cross the BBB”.
For `CC1(C)CC[C@]2(C(=O)O)CC[C@]3(C)C(=CCC4[C@@]5(C)C[C@@H](O)[C@H](O)[C@](C)(CO)C5CC[C@]43C)[C@@H]2[C@@H]1O` (stereo partly drawn) [triterpenoid 3, (1S,4aR,6aS,6bR,9S,10R,11R,12aR,14bS)-1,10,11-trihydroxy-9-(hydroxymethyl)-2,2,6a,6b,9,12a-hexamethyl-1,3,4,5,6,6a,7,8,8a,10,11,12,13,14b-tetradecahydropicene-4a-carboxylic acid], the “ability to cross the artificial BBB” value [1] was “highest permeability value”.

From paper PMC9407205, “Neuroprotective Potential of Thinned Peaches Extracts Obtained by Pressurized Liquid Extraction after Different Drying Processes” (Foods, 2022)
